Target: T1, carbonyl reductase 1 (CBR1) (Homo sapiens, UniProt P16152)
T1 construct: human recombinant CBR1 expressed in Escherichia coli Rosetta (DE3)
T1 sequence (P16152 2-277): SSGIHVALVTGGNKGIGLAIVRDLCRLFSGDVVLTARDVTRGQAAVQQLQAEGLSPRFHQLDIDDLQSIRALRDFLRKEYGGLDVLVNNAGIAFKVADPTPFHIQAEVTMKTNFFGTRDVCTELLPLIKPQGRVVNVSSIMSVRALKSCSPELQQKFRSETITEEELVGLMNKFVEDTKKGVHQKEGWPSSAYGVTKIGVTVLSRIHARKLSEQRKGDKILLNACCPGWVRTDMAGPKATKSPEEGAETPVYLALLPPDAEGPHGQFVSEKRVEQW
Test: recombinant CBR1 inhibition, menadione substrate, NADPH oxidation monitored at […] nm
Assay type: biochemical

IC50: 44 µM
SMILES: COc1ccc2[nH]c(C(=O)N3CCC(CC(C)(C)O)CC3)cc2c1 [ASP9521]

Reference: paper PMC10180078, “In Silico and In Vitro Assessment of Carbonyl Reductase 1 Inhibition Using ASP9521—A Potent Aldo-Keto Reductase 1C3 Inhibitor with the Potential to Support Anticancer Therapy Using Anthracycline Antibiotics” (Molecules, 2023)
